From patent US10357477B2, “Anticancer compounds” (REGENTS OF THE UNIVERSITY OF MINNESOTA, priority 2016, dated 2019)

How the values were obtained:
[1] = system: Panc-1 cells; experiment: Cell viability assay (MTT) in Panc-1 cells; format: cell-based; conditions: Homo sapiens, antiproliferative activity, 72 h
In short: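 After 24 h plating, Panc-1 cells were exposed for 72 h at 37 °C to compound in a nine-point 3-fold series from 100 uM final, in triplicate. Viability read by MTT reduction (570 nm, 690 nm background); EC50 fitted from the curves.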

[2] = Caco-2 permeability assay; format: in vitro ADME; conditions: human, pH 7.4
Protocol: Cell Culture. The human colon adenocarcinoma cell line Caco-2 was purchased from ATCC (American Type Culture Collection, Manassas, Va.), and was cultured in a humidified atmosphere of 5% CO2 at 37° C. Caco-2 cells were cultured in DMEM with 10% FBS, 1% NEAA, 1% GlutaMax and 1% penicillin and streptomycin solution. The culture medium was changed every other day during cell growth and differentiation. On achieving 80-90% confluence, the cells were rinsed with pre-warm DPBS (pH 7.4) and split using trypsin. The cells were then seeded on membranes of Millipore Millicell-24 cell culture device. The transepithelial electrical resistance (TEER) were assessed to reflect membrane integrity using a Millicells® ERS-2 (Millipore, USA). The Caco-2 cell monolayers were used for transport experiments on day 21 post-seeding with TEER values >500 Ω·cm2. Bidirectional Transport Experiments. Before the transport experiments, the cell monolayer was washed three times with HBSS. Then, the plates were incubated in fresh permeability assay buffer (HBSS containing 10 mM glucose and 20 mM HEPES, pH 7.4) at 37° C. The experiments were conducted by spiking test compounds to either the apical (AP, 0.4 mL) or basolateral side (BL, 0.8 mL), while the receiving chamber contained the corresponding volume of pre-warmed permeability assay buffer. Every experiment was repeated in duplicate, and the plates were incubated in an orbital shaker at 37° C., 50 rpm/min. To assess the drug transport, at the incubation time of 20, 40, 60 and 80 min, aliquot was removed and was immediately replenished with an equal volume of permeability assay buffer. The samples were then subjected to LC/MS/MS analysis. The apparent permeability coefficient was indicated by the absorption rate constant Papp. It could be calculated as PBA (measured in BL to AP direction) or PAB (measured in AP to BL direction), using the equation of Papp=(dQ/dt)/(A×C0). dQ/dt is the rate at which the compound appears in the receiver chamber (nmol/s), A is the surface area of the filter membrane (0.7 cm2) and C0 is the initial concentration in the donor chamber (μM). Efflux ratio (ER) was calculated by the equation of ER=PBA/PAB, where PBA is the Papp value measured in BL to AP direction, and PAB is the Papp value measured in AP to BL direction.

Work on `CNC(=O)c1cccc(Cn2nc(C)c(NC(=O)c3ccc(COc4ccc(C(F)(F)F)cc4)cc3)c2C)c1` [Compound D9c, 3-((3,5-Dimethyl-4-(4-((4-(trifluoromethyl)phenoxy)-methyl)benzamido)-1H-pyrazol-1-yl)methyl)-N-methylbenzamide] yielded an EC50 [1] of 210 nM, a Papp A→B at 80 min ([2]; apical to basolateral) of 8.26 ×10⁻⁶ cm/s and a Papp B→A at 80 min ([2]; basolateral to apical) of 19.3 ×10⁻⁶ cm/s.
